Assay results reported in patent publication US20200190464A1, “NOVEL LAC[…] ANTIVIRAL EFFECT AND COMPOSITION THEREOF” (priority 2017, published 2020).

Test system: A/CK/ANYANG/MS96 (H9N2)
Set-up: species or system low-pathogenic avian influenza H9N2 serotype virus

CCOC(=O)C1=C[C@@H](OC(CC)CC)[C@H](NC(C)=O)[C@@H](N)C1 [Tamiflu, Oseltamivir phosphate]
HA positive (eggs): 0/3 | HA titer: 0 | antiviral activity (virus detection in sensitized and inoculated eggs): showed antiviral activity
